Data: patent US20250382305A1 (PTC THERAPEUTICS, INC., priority 2022, published 2025)

Tests used:
[1] = tested on: Total ATXN3 (tATXN3) protein; assay: Endogenous Total ATXN3 (tATXN3) Protein Assay (MSD immunoassay of cell lysates); type: cell-based; conditions: average IC50, total ATXN3 protein in cell lysate after 48 h with compound (Table 1)
Experimental: Endogenous Total ATXN3 (tATXN3) Protein Assay
Meso Scale Discovery (MSD) 96-well or 384-well plates were coated overnight at 4° C. with Ataxin 3 mouse monoclonal antibody (Invitrogen, MA3-082) at a concentration of 0.5 μg/mL in PBS (30 μL per well). Plates were then washed three times with 300 μL wash buffer (0.05% TWEEN®-20, polyethylene glycol sorbitan monolaurate, in PBS) and blocked (Meso Scale Diagnostics, R93BA-1; 5% BSA in PBS) for 2 h at RT with rotational shaking and then washed three times with wash buffer.
(§1) Test compounds were serially diluted 3.16-fold in 100% DMSO to generate a 7-point concentration curve. Aliquots of 0.5 μL of diluted compounds were transferred to a 96-well flat bottom plate by a liquid handler. An aliquot of 0.5 μL DMSO was also transferred to separate wells and used as controls. Duplicate samples were set up for each compound concentration and for the DMSO control.
Cells were thawed and incubated in cell culture media (DMEM, 10% FBS, and 1% antibiotic cocktail) for 72 h. Cells were trypsinized, counted, and re-suspended to a concentration of 100,000 cells/mL in cell culture media. A 100 μL aliquot of the cell suspensions were plated at 10,000 cells per well in the compound containing 96 well microtiter plate and incubated for in a cell culture incubator (37° C., 5% CO2, 100% relative humidity). After 48 h, the medium was removed and 50-100 μL of lysis buffer (Meso Scale Diagnostics, R60TX-2) containing 1× halt protease inhibitor cocktail of (Thermo Scientific, Halt™ Protease Inhibitor Cocktail, 78430) per well was added to cells to provide a “cell lysate”. The plate was placed on a shaker at 4° C. for 30 minutes, then stored at −80° C.
Cell lysate samples (25 μL) were transferred to the antibody-coated MSD plate and incubated overnight at 4° C. After removal of the lysates, the plate was washed three times with wash buffer, and 25 μL of Ataxin 3 recombinant rabbit monoclonal antibody (Invitrogen, #702788) secondary antibody (diluted to 0.25 μg/mL in 0.05% TWEEN®-20 in blocking buffer) was added to each well and incubated with shaking for 1-2 h at room temperature. Following incubation with the secondary antibody, the wells were rinsed with wash buffer and then 25 μL of Anti Rabbit Antibody Goat SULFO-TAG Labeled (Meso Scale Diagnostics, R32AB-1) detecting antibody (diluted to […] in 0.05% TWEEN®-20 in blocking buffer) was added to each well and incubated with shaking for 1 h at room temperature. After rinsing three times with wash buffer, 150 μL of Read Buffer T with surfactant (tris-based buffer containing tripropylamine, Meso Scale Diagnostics, R92TC-1) were added to each empty well, and the plate was imaged on a SI 6000 imager (MSD) according to manufacturers' instructions provided for 96- or 384-well plates.
(§2) An average IC50>1 μM is indicated by one star (*), between >0.3 μM and ≤1 μM is indicated by two stars (**), between >0.03 μM and ≤0.3 μM is indicated by three stars (***), and ≤0.03 μM is indicated by four stars (****).

ATXN3 pre-mRNA = assay: RT-qPCR Assay to Quantify Exon 4 Skipping in ATXN3 pre-mRNA in Cells; type: cell-based; conditions: percent exon 4 skipping in ATXN3 pre-mRNA, RT-qPCR of cell lysates; average IC50
Experimental: RT-qPCR Assay to Quantify Exon 4 Skipping in ATXN3 pre-mRNA in Cells
as §1
Cells were thawed and incubated in cell culture media (DMEM, 10% FBS, and 1% antibiotic cocktail) for 72 h. Cells were trypsinized, counted, and re-suspended to a concentration of 100,000 cells/mL in cell culture media. A 100 μL aliquot of the cell suspensions were plated at 10,000 cells per well in the compound containing 96 well microtiter plate and incubated for in a cell culture incubator (37° C., 5% CO2, 100% relative humidity).
After 24 h, media was aspirated from the cells and 50 μL of the RCL2 lysis buffer (10 mM Tris-HCL pH 7.4, 150 mM NaCl, 0.33% IGEPAL® CA-630) was added to each well and incubated at RT for 1 min. Chilled nuclease free water (50 μL per well) was added and the plates were immediately transferred on ice. After 1 min on ice, plates were frozen at −80° C. overnight.
Preparation of RT-qPCR Reaction Mixture:
An aliquot of 2 μL/well of the cell lysates was transferred using the liquid handler to the Armadillo 384-Well PCR plate containing 8 μL/well of the RT-qPCR reaction mixture that was prepared as detailed above. The plates were then sealed with MicroAmp™ Optical Adhesive Film followed by spinning down for 1 min and placed in the CFX384 thermocycler (BioRad).
The RT-qPCR was carried out at the following temperatures for the indicated time: • Step 1: 48° C. (30 min) • Step 2: 95° C. (10 min) • Step 3: 95° C. (15 sec) • Step 4: 60° C. (1 min); then, repeated Steps 3 and 4 for a total of 40 cycles.
The percent exon 4 skipping was calculated for each dose of compound treatment using Equations 1 and 2.
Data were fit to a dose response curve and the IC50 was interpolated using XLfit® statistical and curve fitting package.
as §2

Compound	IC50 [1] [nM]	IC50 (ATXN3 pre-mRNA) [nM]
2-((2R,3R)-3-aminotetrahydro-2H-pyran-2-yl)-5-chloro-N-(2-fluorobenzyl)thieno[3,2-b]pyridin-7-amine and 2-((2S,3S)-3-aminotetrahydro-2H-pyran-2-yl)-5-chloro-N-(2-fluorobenzyl)thieno[3,2-b]pyridin-7-amine [Compound 28]	> 1000	> 1000
CCc1c([C@H]2CCCCC[C@@H]2N)sc2c(NCc3cccs3)cc(Cl)nc12 (single isomer, unassigned) [Compound 87, 2-((1S,2S)-2-aminocycloheptyl)-5-chloro-3-ethyl-N-(thiophen-2-ylmethyl)thieno[3,2-b]pyridin-7-amine or 2-((1R,2R)-2-aminocycloheptyl)-5-chloro-3-ethyl-N-(thiophen-2-ylmethyl)thieno[3,2-b]pyridin-7-amine]	30 to 300	30 to 300
CCc1c([C@@H]2CCCCC[C@H]2N)sc2c(NCc3cccs3)cc(Cl)nc12 (single isomer, unassigned) [Compound 86, 2-((1R,2R)-2-aminocycloheptyl)-5-chloro-3-ethyl-N-(thiophen-2-ylmethyl)thieno[3,2-b]pyridin-7-amine or 2-((1S,2S)-2-aminocycloheptyl)-5-chloro-3-ethyl-N-(thiophen-2-ylmethyl)thieno[3,2-b]pyridin-7-amine]	> 1000	> 1000
N[C@@H]1CCC[C@@H]1c1cc2nc(Cl)cc(NCc3cccs3)c2s1 [Compound 9, 2-((1S,2R)-2-aminocyclopentyl)-5-chloro-N-(thiophen-2-ylmethyl)thieno[3,2-b]pyridin-7-amine]	> 1000	300 to 1000
2-((1R,2R)-2-aminocyclohexyl)-N-benzyl-5-chloro-3-iodothieno[3,2-b]pyridin-7-amine and 2-((1S,2S)-2-aminocyclohexyl)-N-benzyl-5-chloro-3-iodothieno[3,2-b]pyridin-7-amine [Compound 295]	30 to 300	30 to 300
N[C@@H]1CCC[C@H]1c1sc2c(NCc3ccco3)cc(Cl)nc2c1Br [Compound 155, 2-((1R,2R)-2-aminocyclopentyl)-3-bromo-5-chloro-N-(furan-2-ylmethyl)thieno[3,2-b]pyridin-7-amine]	> 1000	300 to 1000
N[C@@H]1CCCO[C@H]1c1sc2c(NCc3cccs3)cc(Cl)nc2c1C#CCCO.N[C@H]1CCCO[C@@H]1c1sc2c(NCc3cccs3)cc(Cl)nc2c1C#CCCO (mixture of isomers) [Compound 213, 4-(2-((2R,3R)-3-aminotetrahydro-2H-pyran-2-yl)-5-chloro-7-((thiophen-2-ylmethyl)amino)thieno[3,2-b]pyridin-3-yl)but-3-yn-1-ol and 4-(2-((2S,3S)-3-aminotetrahydro-2H-pyran-2-yl)-5-chloro-7-((thiophen-2-ylmethyl)amino)thieno[3,2-b]pyridin-3-yl)but-3-yn-1-ol]	≤ 30	≤ 30
N[C@@H]1CCC[C@H]1c1sc2c(NCc3ccccc3)cc(Cl)nc2c1Cl [Compound 167, 2-((1R,2R)-2-aminocyclopentyl)-N-benzyl-3,5-dichlorothieno[3,2-b]pyridin-7-amine]	300 to 1000	30 to 300
CC#CCNc1cc(Cl)nc2c(Cl)c([C@H]3CCCC[C@@H]3N)sc12 [Compound 308, 2-((1S,2S)-2-aminocyclohexyl)-N-(but-2-yn-1-yl)-3,5-dichlorothieno[3,2-b]pyridin-7-amine]	30 to 300	30 to 300
N[C@H]1CCCCC[C@@H]1c1sc2c(NCc3cccs3)cc(Cl)nc2c1Br [Compound 75, 2-((1S,2S)-2-aminocycloheptyl)-3-bromo-5-chloro-N-(thiophen-2-ylmethyl)thieno[3,2-b]pyridin-7-amine]	30 to 300	30 to 300

Second part, the compound after the results:

IC50 [1] [nM]	IC50 (ATXN3 pre-mRNA) [nM]	Compound
30 to 300	≤ 30	Cc1c([C@H]2CC=CC[C@@H]2N)sc2c(NCc3ccccc3)cc(Cl)nc12 [Compound 258, 2-((1S,6S)-6-aminocyclohex-3-en-1-yl)-N-benzyl-5-chloro-3-methylthieno[3,2-b]pyridin-7-amine]
> 1000	> 1000	N[C@H]1CCCCCC[C@@H]1c1cc2nc(Cl)cc(NCc3cccs3)c2s1 [Compound 103, 2-((1S,2S)-2-aminocyclooctyl)-5-chloro-N-(thiophen-2-ylmethyl)thieno[3,2-b]pyridin-7-amine]
30 to 300	30 to 300	N[C@H]1CCCO[C@@H]1c1c(Br)c2nc(Cl)cc(NCc3cccs3)c2n1C(F)F [Compound 281, 2-((2S,3S)-3-aminotetrahydro-2H-pyran-2-yl)-3-bromo-5-chloro-1-(difluoromethyl)-N-(thiophen-2-ylmethyl)-1H-pyrrolo[3,2-b]pyridin-7-amine]
300 to 1000	30 to 300	N[C@@H]1CC=CC[C@H]1c1sc2c(NCc3ccccc3)cc(Cl)nc2c1Br [Compound 403, 2-((1R,6R)-6-aminocyclohex-3-en-1-yl)-N-benzyl-3-bromo-5-chlorothieno[3,2-b]pyridin-7-amine]
≤ 30	≤ 30	2-((1R,6R)-6-aminocyclohex-3-en-1-yl-2,2,3,4,5,5-d6)-5-chloro-N-(furan-2-ylmethyl)-3-methylthieno[3,2-b]pyridin-7-amine and 2-((1S,6S)-6-aminocyclohex-3-en-1-yl-2,2,3,4,5,5-d6)-5-chloro-N-(furan-2-ylmethyl)-3-methylthieno[3,2-b]pyridin-7-amine [Compound 171]
30 to 300	30 to 300	N[C@H]1[C@H](O)CCC[C@@H]1c1sc2c(NCc3cccs3)cc(Cl)nc2c1Cl [Compound 298, (1R,2R,3S)-2-amino-3-(3,5-dichloro-7-((thiophen-2-ylmethyl)amino)thieno[3,2-b]pyridin-2-yl)cyclohexan-1-ol]
≤ 30	≤ 30	N[C@H]1CCCC[C@@H]1c1sc2c(NCc3cccs3)cc(Cl)nc2c1I [Compound 57, 2-((1S,2S)-2-aminocyclohexyl)-5-chloro-3-iodo-N-(thiophen-2-ylmethyl)thieno[3,2-b]pyridin-7-amine]
≤ 30	≤ 30	N[C@@H]1CC=CC[C@H]1c1sc2c(NCc3ccco3)nc(Cl)nc2c1Cl [Compound 437, 6-((1R,6R)-6-aminocyclohex-3-en-1-yl)-2,7-dichloro-N-(furan-2-ylmethyl)thieno[3,2-d]pyrimidin-4-amine]
30 to 300	30 to 300	N[C@H]1CCCC[C@]1(F)c1sc2c(NCc3ccco3)cc(Cl)nc2c1Cl [Compound 38, 2-((1R,2S)-2-amino-1-fluorocyclohexyl)-3,5-dichloro-N-(furan-2-ylmethyl)thieno[3,2-b]pyridin-7-amine]
